By inhibition is commonly meant the percentage by which the read-out fell short of the control. Usually IC50 stands for the concentration at which inhibition is half-maximal. The low end stands for greater potency, the high end for weaker potency.

In the first assay the target is T1, human Fatty Acid Synthase (Homo sapiens, UniProt P49327).
T1 construct: made in house
T1 sequence (P49327 whole entry): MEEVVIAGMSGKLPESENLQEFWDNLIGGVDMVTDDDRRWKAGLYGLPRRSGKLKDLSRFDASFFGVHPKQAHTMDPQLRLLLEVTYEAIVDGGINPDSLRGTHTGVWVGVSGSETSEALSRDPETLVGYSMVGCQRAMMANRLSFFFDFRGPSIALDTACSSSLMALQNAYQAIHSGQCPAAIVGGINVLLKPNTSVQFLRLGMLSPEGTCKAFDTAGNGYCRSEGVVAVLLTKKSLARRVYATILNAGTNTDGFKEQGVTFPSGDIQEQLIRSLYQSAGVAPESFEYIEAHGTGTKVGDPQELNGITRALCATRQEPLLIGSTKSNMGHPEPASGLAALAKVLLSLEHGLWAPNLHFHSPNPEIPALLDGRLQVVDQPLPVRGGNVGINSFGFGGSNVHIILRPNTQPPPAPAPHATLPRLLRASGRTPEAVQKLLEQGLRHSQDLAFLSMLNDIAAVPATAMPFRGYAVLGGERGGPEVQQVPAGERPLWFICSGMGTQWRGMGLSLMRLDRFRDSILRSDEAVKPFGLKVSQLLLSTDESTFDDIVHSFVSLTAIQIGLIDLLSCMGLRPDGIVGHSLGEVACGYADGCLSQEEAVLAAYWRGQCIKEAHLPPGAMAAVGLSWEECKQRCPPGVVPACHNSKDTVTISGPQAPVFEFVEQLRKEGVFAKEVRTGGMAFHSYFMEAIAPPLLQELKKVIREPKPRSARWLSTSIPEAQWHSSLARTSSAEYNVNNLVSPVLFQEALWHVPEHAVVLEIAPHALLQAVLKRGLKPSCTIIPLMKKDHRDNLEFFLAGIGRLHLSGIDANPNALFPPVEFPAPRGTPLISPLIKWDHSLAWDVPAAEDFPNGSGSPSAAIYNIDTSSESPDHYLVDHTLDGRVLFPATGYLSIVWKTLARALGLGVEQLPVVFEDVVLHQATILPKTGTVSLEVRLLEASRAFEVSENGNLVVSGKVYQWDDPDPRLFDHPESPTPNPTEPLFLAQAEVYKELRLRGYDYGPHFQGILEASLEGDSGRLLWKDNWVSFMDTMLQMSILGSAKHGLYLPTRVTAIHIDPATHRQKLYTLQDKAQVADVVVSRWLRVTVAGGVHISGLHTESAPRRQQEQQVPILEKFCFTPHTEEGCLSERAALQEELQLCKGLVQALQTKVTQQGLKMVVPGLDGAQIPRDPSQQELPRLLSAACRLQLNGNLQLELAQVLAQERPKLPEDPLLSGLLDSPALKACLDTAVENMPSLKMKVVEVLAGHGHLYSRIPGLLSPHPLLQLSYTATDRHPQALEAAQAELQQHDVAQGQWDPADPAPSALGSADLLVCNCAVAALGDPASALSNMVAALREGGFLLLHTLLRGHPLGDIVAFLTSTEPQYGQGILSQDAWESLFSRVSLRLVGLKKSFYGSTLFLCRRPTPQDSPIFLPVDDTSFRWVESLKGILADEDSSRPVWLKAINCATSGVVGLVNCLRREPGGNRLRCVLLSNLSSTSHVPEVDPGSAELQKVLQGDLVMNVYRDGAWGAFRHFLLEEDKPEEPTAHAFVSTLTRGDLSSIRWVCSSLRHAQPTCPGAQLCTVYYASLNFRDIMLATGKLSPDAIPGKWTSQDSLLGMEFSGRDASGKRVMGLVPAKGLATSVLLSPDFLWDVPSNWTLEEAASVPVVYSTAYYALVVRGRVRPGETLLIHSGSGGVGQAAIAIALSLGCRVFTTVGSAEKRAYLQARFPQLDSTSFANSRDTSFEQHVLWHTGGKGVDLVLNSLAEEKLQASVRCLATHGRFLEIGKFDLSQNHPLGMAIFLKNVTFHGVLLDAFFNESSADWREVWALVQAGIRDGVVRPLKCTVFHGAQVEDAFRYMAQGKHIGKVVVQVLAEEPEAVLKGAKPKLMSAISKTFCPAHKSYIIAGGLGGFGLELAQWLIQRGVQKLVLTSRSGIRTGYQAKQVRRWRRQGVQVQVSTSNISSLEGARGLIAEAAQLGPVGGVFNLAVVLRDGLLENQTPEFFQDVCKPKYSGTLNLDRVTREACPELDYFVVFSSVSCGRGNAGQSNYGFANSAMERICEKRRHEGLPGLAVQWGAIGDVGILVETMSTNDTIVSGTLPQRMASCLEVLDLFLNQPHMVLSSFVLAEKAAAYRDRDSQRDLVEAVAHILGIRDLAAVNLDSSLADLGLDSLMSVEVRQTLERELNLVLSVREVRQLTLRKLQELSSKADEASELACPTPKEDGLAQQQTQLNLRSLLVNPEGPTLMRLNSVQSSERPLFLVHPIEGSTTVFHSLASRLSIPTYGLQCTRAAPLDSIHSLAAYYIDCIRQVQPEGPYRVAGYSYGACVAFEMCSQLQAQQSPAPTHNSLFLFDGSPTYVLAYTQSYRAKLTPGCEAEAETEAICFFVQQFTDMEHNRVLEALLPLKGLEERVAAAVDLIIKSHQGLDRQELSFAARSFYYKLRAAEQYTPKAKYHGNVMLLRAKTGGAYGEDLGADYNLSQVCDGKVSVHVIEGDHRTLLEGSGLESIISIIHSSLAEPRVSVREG
The experiment in a line: Human FAS enzyme assay (decrease in NADPH fluorescence). The format is biochemical. To be noted: % inhibition at a concentration of 100 micromolar. Put shortly: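 Readout: decrease in NADPH fluorescence (340 nm ex, 460 nm em) after 60 min at RT, background-subtracted against a read taken before substrate. Substrate mix contained 500 μM malonyl-CoA and 150 μM acetyl-CoA. It was added after 15 min enzyme (0.4 μg in-house human FAS)–compound–NADPH preincubation in Tris pH 7.5 buffer; % inhibition was fitted to IC50.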
Compound `CNCCCS(=O)(=O)Nc1cc(C(=O)N2CCC(c3ccc(C#N)cc3)CC2)ccc1C` [Example 75, N-[5-[4-(4-cyanophenyl)piperidine-1-carbonyl]-2-methyl-phenyl]-3-methylamino-propane-1-sulfonamide] yielded an inhibition at 100 µM of 93%.
Take `Cc1ccc(NS(=O)(=O)c2ccc3c(c2)CC(=O)N3)cc1C(=O)N1CCC(c2ccc(C#N)cc2)CC1` [Example 53, N-[3-[4-(4-cyanophenyl)piperidine-1-carbonyl]-4-methyl-phenyl]-2-oxo-1,3-dihydroindole-5-sulfonamide]: the inhibition at 100 µM came out at 84%.
`Cc1ccc(C(=O)N2CCC(c3ccc(Oc4ccccn4)cc3)CC2)cc1NS(C)(=O)=O` [Example 187, N-[2-methyl-5-[4-(4-pyridin-2-yloxyphenyl)piperidine-1-carbonyl]phenyl]methanesulfonamide]: testing at 100 µM gave an inhibition of 100%.
For `Cc1ccc(C(=O)N2CCC(c3ccc(C#N)cc3)CC2)cc1NS(=O)(=O)CC#N` [Example 212, 1-cyano-N-[5-[4-(4-cyanophenyl)piperidine-1-carbonyl]-2-methylphenyl]methanesulfonamide], testing at 100 µM gave an inhibition of 69%.
On the same count and under the same terms, the result for `Cc1ccc(C(=O)N2CCC(c3ccc(S(N)(=O)=O)cc3)CC2)cc1NS(C)(=O)=O` [Example 186, 4-[1-(3-methanesulfonamido-4-methylbenzoyl)piperidin-4-yl]benzenesulfonamide] reads 99%; that for `CCS(=O)(=O)Nc1ccc(C)c(C(=O)N2CCC(c3ccc(C#N)cc3)CC2)c1` [Example 36, N-[3-[4-(4-cyanophenyl)piperidine-1-carbonyl]-4-methyl-phenyl]ethanesulfonamide], 88%.
As to `COc1ccccc1S(=O)(=O)Nc1ccc(C)c(C(=O)N2CCC(c3ccc(C#N)cc3)CC2)c1` [Example 50, N-[3-[4-(4-cyanophenyl)piperidine-1-carbonyl]-4-methyl-phenyl]-2-methoxy-benzenesulfonamide], at 100 µM the inhibition was 87%.
In turn, `Cc1ccc(NS(=O)(=O)Cc2ccccc2)cc1C(=O)N1CCC(c2ccc(C#N)cc2)CC1` [Example 8, N-[3-[4-(4-cyanophenyl)piperidine-1-carbonyl]-4-methyl-phenyl]-1-phenyl-methanesulfonamide] gave an inhibition at 100 µM of 82%.
`Cc1ccc(C(=O)N2CCC(c3ccc(CNC(=O)CO)cc3)CC2)cc1NS(C)(=O)=O` [Example 241, 2-hydroxy-N-[[4-[1-(3-methanesulfonamido-4-methylbenzoyl)piperidin-4-yl]phenyl]methyl]acetamide] had an inhibition at 100 µM of 81.5%.
In the case of `Cc1ccc(NS(=O)(=O)Cc2ccc(S(C)(=O)=O)cc2)cc1C(=O)N1CCC(c2ccc(C#N)cc2)CC1` [Example 54, N-[3-[4-(4-cyanophenyl)piperidine-1-carbonyl]-4-methyl-phenyl]-1-(4-methylsulfonylphenyl)methanesulfonamide], the inhibition at 100 µM came to 84%.
As for `Cc1ccc(C(=O)N2CCC(c3ccc(C#N)cc3)CC2)cc1NS(=O)(=O)C(C)C` [Example 128, N-[5-[4-(4-cyanophenyl)piperidine-1-carbonyl]-2-methyl-phenyl]propane-2-sulfonamide], the inhibition at 100 µM was 96%.
Regarding `Cc1ccc(C(=O)N2CCC(c3ccc(-c4nccs4)cc3)CC2)cc1NS(C)(=O)=O` [Example 170, N-[2-methyl-5-[4-[4-(1,3-thiazol-2-yl)phenyl]piperidine-1-carbonyl]phenyl]methanesulfonamide], the inhibition at 100 µM is 74%.
`Cc1ccc(C(=O)N2CCC(c3ccc(C#N)cc3)CC2)cc1NS(=O)(=O)CCO` [Example 109, N-[5-[4-(4-cyanophenyl)piperidine-1-carbonyl]-2-methyl-phenyl]-2-hydroxy-ethanesulfonamide] yielded an inhibition at 100 µM of 94%.
For `CCCC(C)S(=O)(=O)Nc1cc(C(=O)N2CCC(c3ccc(C#N)cc3)CC2)ccc1C` (stereo not drawn) [Example 63, N-[5-[4-(4-cyanophenyl)piperidine-1-carbonyl]-2-methyl-phenyl]pentane-2-sulfonamide], testing at 100 µM gave an inhibition of 85%.
The same measure, in the same setting: the result for `CC(=O)N1CCC(S(=O)(=O)Nc2cc(C(=O)N3CCC(c4ccc(C#N)cc4)CC3)ccc2C)CC1` [Example 118, 1-acetyl-N-[5-[4-(4-cyanophenyl)piperidine-1-carbonyl]-2-methyl-phenyl]piperidine-4-sulfonamide] reads 85%; that for `CCS(=O)(=O)Nc1cc(C(=O)N2CCC(c3ccc(C#N)cc3)CC2)c(C)cc1C` [Example 166, N-[5-[4-(4-cyanophenyl)piperidine-1-carbonyl]-2,4-dimethylphenyl]ethanesulfonamide], 96%.
Turning to `Cc1ccc(C(=O)N2CCC(c3ccc(C#N)cc3)CC2)cc1NS(=O)(=O)CCCN1CCOCC1` [Example 67, N-[5-[4-(4-cyanophenyl)piperidine-1-carbonyl]-2-methyl-phenyl]-3-morpholin-4-yl-propane-1-sulfonamide], the inhibition at 100 µM came out at 92%.
Still for that read-out and setting: with `Cc1ccc(NS(=O)(=O)c2ccccc2)cc1C(=O)N1CCC(c2ccc(C#N)cc2)CC1` [Example 35, N-[3-[4-(4-cyanophenyl)piperidine-1-carbonyl]-4-methyl-phenyl]benzenesulfonamide] the figure was 89%; with `CS(=O)(=O)Nc1cccc(C(=O)N2CCC(c3ccc(C#N)cc3)CC2)c1` [Example 203, N-[3-[4-(4-cyanophenyl)piperidine-1-carbonyl]phenyl]methanesulfonamide], 71%.
The compound `Cc1ccc(C(=O)N2CCC(c3ccc(C#N)cc3)CC2)cc1NS(=O)(=O)c1ccccc1C(=O)N(C)C` [Example 206, 2-[[5-[4-(4-cyanophenyl)piperidine-1-carbonyl]-2-methylphenyl]sulfamoyl]-N,N-dimethylbenzamide] gave an inhibition at 100 µM of 76%.
`Cc1ccc(NS(=O)(=O)Cc2cccc(F)c2)cc1C(=O)N1CCC(c2ccc(C#N)cc2)CC1` [Example 52, N-[3-[4-(4-cyanophenyl)piperidine-1-carbonyl]-4-methyl-phenyl]-1-(3-fluorophenyl)methanesulfonamide] registered an inhibition at 100 µM of 91%.
Take `Cc1ccc(C(=O)N2CCC(c3ccc(C(N)=O)cc3)CC2)cc1NS(C)(=O)=O` [Example 112, 4-[1-(3-methanesulfonamido-4-methyl-benzoyl)-4-piperidyl]benzamide]: the inhibition at 100 µM was 79%.
As for `CCC(C)S(=O)(=O)Nc1cc(C(=O)N2CCC(c3ccc(C#N)cc3)CC2)ccc1C` (racemic) [Example 18, (RS)—N-[5-[4-(4-cyanophenyl)piperidine-1-carbonyl]-2-methyl-phenyl]butane-2-sulfonamide], the inhibition at 100 µM was 92%.
Same read-out and setting: the result for `COc1ccc(C2CCN(C(=O)c3ccc(C)c(NS(C)(=O)=O)c3)CC2)cc1` [Example 162, N-[5-[4-(4-methoxyphenyl)piperidine-1-carbonyl]-2-methylphenyl]methanesulfonamide] reads 86%.
As for `COCCCS(=O)(=O)Nc1cc(C(=O)N2CCC(c3ccc(C#N)cc3)CC2)ccc1C` [Example 110, N-[5-[4-(4-cyanophenyl)piperidine-1-carbonyl]-2-methyl-phenyl]-3-methoxy-propane-1-sulfonamide], at 100 µM the inhibition was 86%.

Still in this assay, the particulars now being: compounds excluded from the claims by proviso.
Regarding `Cc1ccc(C(=O)N2CCC(c3ccc(N4CCCC4=O)cc3)CC2)cc1NS(C)(=O)=O` [N-[2-methyl-5-[4-[4-(2-oxopyrrolidin-1-yl)phenyl]piperidine-1-carbonyl]phenyl]methanesulfonamide], the “IC50s in the range of about 0.001 μM to about 30 μM” value (“IC50s in the range” below) was “do not have IC50s in the range of about 0.001 μM to about 30 μM”.
`Cc1ccc(C(=O)N2CCC(c3ccc(C#N)cc3)CC2)cc1NS(=O)(=O)C1CCN(C(=O)OCc2ccccc2)C1` (stereo not drawn) [Benzyl 3-[[5-[4-(4-cyanophenyl)piperidine-1-carbonyl]-2-methylphenyl]sulfamoyl]pyrrolidine-1-carboxylate]: the “IC50s in the range” value is given as “do not have IC50s in the range of about 0.001 μM to about 30 μM”.
With `Cc1ccc(C(=O)N2CCC(c3ccc(C#N)c(C#N)c3)CC2)cc1NS(C)(=O)=O` [N-[5-[4-(3,4-dicyanophenyl)piperidine-1-carbonyl]-2-methylphenyl]methanesulfonamide], the “IC50s in the range” value was “do not have IC50s in the range of about 0.001 μM to about 30 μM”.
Same read-out and setting: the result for `CS(=O)(=O)Nc1cc(C(=O)N2CCC(c3ccc(C#N)cc3)CC2)ccc1F` [N-[5-[4-(4-cyanophenyl)piperidine-1-carbonyl]-2-fluorophenyl]methanesulfonamide] reads “do not have IC50s in the range of about 0.001 μM to about 30 μM”; that for `Cc1ccc(C(=O)N2CCC(c3ccc(C#N)cc3C)CC2)cc1NS(C)(=O)=O` [N-[5-[4-(4-cyano-2-methylphenyl)piperidine-1-carbonyl]-2-methylphenyl]methanesulfonamide], “do not have IC50s in the range of about 0.001 μM to about 30 μM”.
For the compound `Cc1ccc(C(=O)N2CCC(c3ccc(CC(=O)O)cc3)CC2)cc1NS(=O)(=O)C1CCCCC1` [2-[4-[1-[3-(cyclohexylsulfonylamino)-4-methylbenzoyl]piperidin-4-yl]phenyl]acetic acid], the “IC50s in the range” value is recorded as “do not have IC50s in the range of about 0.001 μM to about 30 μM”.

Staying with this assay, now noted: unit inferred.
As for `Cc1ccc(C(=O)N2CCC(c3ccc(C#CC(C)(C)O)cc3)CC2)cc1NS(C)(=O)=O` [Example 252, N-[5-[4-[4-(3-hydroxy-3-methylbut-1-ynyl)phenyl]piperidine-1-carbonyl]-2-methylphenyl]methanesulfonamide], the IC50 is 3330 nM.
The compound `Cc1ccc(C(=O)N2CCC(c3ccc(C#CCCO)cc3)CC2)cc1NS(C)(=O)=O` [Example 251, N-[5-[4-[4-(4-hydroxybut-1-ynyl)phenyl]piperidine-1-carbonyl]-2-methylphenyl]methanesulfonamide] yielded an IC50 of 663 nM.

For the origin of these results see US20090105305A1, “Therapeutic Agents - 550” (AstraZeneca AB, priority 2006, published 2009).
